The source of these data is patent US20250122221A1 (NANJING ZAIMING PHARMACEUTICAL CO., LTD., priority 2022, published 2025).

Assay [1] has as its target N-terminal active peptide segment (MI-N899) of POLQ with ATPase activity (Homo sapiens (Human), UniProt O75417). The assay can be described thus: POLQ enzyme activity inhibition experiment (ATPase, NADH-coupled, OD 340 nm). The note with it: 100 nM POLQ (N), 100 μM ATP, 300 nM dT50. The class given is biochemical.
Another assay concerns DLD-1 BRCA2 (−/−) cells. Briefly: Inhibition of tumour cell proliferation, 7 days, CTG. The class given is cell-based. The note with it: Homo sapiens, read-out: DLD-1 BRCA2 (−/−) IC50. On the procedure: (§1) Brief introduction to the experimental principle: The compounds were co-incubated with tumour cells for 7 days, and then a CTG kit from Promega Inc was used to quantify ATP in viable cells, thus reflecting the effect of the compounds on tumour cell proliferation.
(§2) Experimental method: DLD-1 parental cells or DLD-1 BRCA2 (−/−) cells were diluted with RPMI 1640 medium containing 10% FBS, and then added to a 96-well plate (90 μL/well), with the number of cells being 600 cells/well or 1200 cells/well, respectively, and cultured overnight in a 37° C., 5% CO2 incubator. The compounds to be tested were diluted to different concentrations in dimethyl sulfoxide (DMSO), and then added to a 96-well plate. The final concentration of the compounds in the reaction system started from 25 μM, and was subjected to 4-fold gradient dilution. The concentration range of the compounds was from 25 μM to 0.0004 μM, and the final concentration of DMSO was 0.25% v/v. After 7 days of incubation, 50 μL/well CTG was added, and the mixture was incubated at room temperature for 10 minutes. Subsequently, the luminescence (Lum) signal value was read with an Envision microplate reader, and the inhibition rate and half inhibitory concentration (IC50) were calculated.
(§3) The inhibition rate was calculated, and XLfit software was used to perform fitting to obtain IC50 of the compounds.
(§4) In the experiment, a blank well and a DMSO well were set up, respectively.
(§5) Inhibition rate=100*(Lummax−Lumcompound)/(Lummax−Lummin)%, • where Lummax refers to the luminescence signal value of the well containing cells and 0.25% v/v DMSO; Lumcompound refers to the luminescence signal value of the well containing the compound and cells; and Lummin refers to the luminescence signal value of the well containing the medium and 0.25% v/v DMSO.

In a further assay the test system is DLD-1 parental cells. The description is as above. The class given is cell-based. To be noted: Homo sapiens, read-out: DLD-1 parental cell IC50. On the procedure: as §1, §2, §3, §4, §5
Setting [2] is: 168 h, DLD-1 BRCA2 (−/−) cells, 7 days of incubation, CTG.
[3] abbreviates: 168 h, DLD-1 parental cells, 7 days of incubation, CTG.

Read-outs that look alike come from different tables or passages of the source. Bounds are passed on as bounds.

N-terminal active peptide segment (MI-N899) of POLQ with ATPase activity, sequence (O75417 1-899 limits assumed): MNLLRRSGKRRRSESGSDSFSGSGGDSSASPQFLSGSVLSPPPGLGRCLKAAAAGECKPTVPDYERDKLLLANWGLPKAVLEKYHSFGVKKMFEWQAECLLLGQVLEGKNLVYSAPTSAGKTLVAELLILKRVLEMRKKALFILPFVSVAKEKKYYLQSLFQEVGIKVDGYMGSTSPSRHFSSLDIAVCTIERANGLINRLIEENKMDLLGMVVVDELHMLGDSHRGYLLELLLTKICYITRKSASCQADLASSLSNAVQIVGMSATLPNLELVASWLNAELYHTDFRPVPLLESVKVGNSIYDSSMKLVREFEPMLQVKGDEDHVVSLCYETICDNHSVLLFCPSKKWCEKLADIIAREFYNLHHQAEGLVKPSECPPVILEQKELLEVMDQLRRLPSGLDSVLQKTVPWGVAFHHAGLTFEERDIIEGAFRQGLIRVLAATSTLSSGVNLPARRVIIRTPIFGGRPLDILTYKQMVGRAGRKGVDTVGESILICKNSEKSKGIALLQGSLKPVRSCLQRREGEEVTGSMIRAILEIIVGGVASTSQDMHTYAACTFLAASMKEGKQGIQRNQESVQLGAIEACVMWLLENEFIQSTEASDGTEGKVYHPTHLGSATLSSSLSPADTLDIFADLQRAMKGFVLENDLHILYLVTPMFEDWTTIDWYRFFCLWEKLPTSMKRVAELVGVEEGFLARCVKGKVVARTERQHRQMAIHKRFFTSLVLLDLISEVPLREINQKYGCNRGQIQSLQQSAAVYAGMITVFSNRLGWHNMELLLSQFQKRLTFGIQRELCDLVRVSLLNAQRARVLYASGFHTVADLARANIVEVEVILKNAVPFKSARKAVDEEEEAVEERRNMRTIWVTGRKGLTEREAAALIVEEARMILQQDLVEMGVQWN

Consider `Cc1cc(-c2cc(C)ncc2C(=O)Nc2nc3ncc(-c4ccc(C#N)cc4)nc3s2)c(OC(F)F)cn1` [Compound 74, N-(6-(4-cyanophenyl)thiazolo[4,5-b]pyrazin-2-yl)-5′-(difluoromethoxy)-2′,6-dimethyl-[4,4′-bipyridine]-3-carboxamide], for which the IC50 in assay [1] is less than 100 nM; in the assay with DLD-1 BRCA2 (−/−) cells (setting [2]) it was less than 200 nM; in the assay with DLD-1 parental cells (setting [3]) it was more than 10000 nM.

Consider `COc1ccc(-c2cnc3nc(NC(=O)c4cnc(C)cc4-c4cc(C)ncc4OC)sc3n2)nc1` [Compound 75, 5′-methoxy-N-[6-(5-methoxypyridin-2-yl)thiazolo[4,5-b]pyrazin-2-yl]-2′,6-dimethyl-[4,4′-bipyridine]-3-carboxamide], for which the IC50 in assay [1] is less than 100 nM; with DLD-1 BRCA2 (−/−) cells (DLD-1, 168 h), less than 200 nM; in the assay with DLD-1 parental cells (DLD-1, 168 h), more than 10000 nM.

For the compound `COc1ccc(Cl)cc1-c1cc(C)ncc1C(=O)Nc1nc2ncc(-c3ccc(C4CC4)cn3)nc2s1` [Compound 77, 4-(5-chloro-2-methoxyphenyl)-N-[6-(5-cyclopropylpyridin-2-yl)thiazolo[4,5-b]pyrazin-2-yl]-6-methylpyridine-3-carboxamide], the IC50 in assay [1] was less than 100 nM; in the assay with DLD-1 BRCA2 (−/−) cells (setting [2]), less than 200 nM; in the assay with DLD-1 parental cells (setting [3]) it was more than 10000 nM.

Consider `COc1ccc(Cl)cc1-c1cc(C)ncc1C(=O)Nc1nc2ncc(-c3ccc(C(C)(C)O)cn3)nc2s1` [Compound 78, 4-(5-chloro-2-methoxyphenyl)-N-(6-(5-(2-hydroxyprop-2-yl)pyridin-2-yl)thiazolo[4,5-b]pyrazin-2-yl)-6-methylpyridine-3-carboxamide], for which the IC50 in assay [1] is less than 100 nM; in the assay on DLD-1 BRCA2 (−/−) cells (setting [2]) it was less than 200 nM; in the assay on DLD-1 parental cells (setting [3]), more than 10000 nM.

Turning to `COc1ccc(Cl)cc1-c1cc(C)ncc1C(=O)Nc1nc2ncc(-c3ccc(C4CC4)cc3)nc2s1` [Compound 79, 4-(5-chloro-2-methoxyphenyl)-N-(6-(4-cyclopropylphenyl)thiazolo[4,5-b]pyrazin-2-yl)-6-methylpyridine-3-carboxamide], the IC50 in assay [1] is less than 100 nM; in the assay on DLD-1 BRCA2 (−/−) cells (setting [2]) it was less than 200 nM; with DLD-1 parental cells (setting [3]), more than 10000 nM.

On to `COc1ccc(Cl)cc1-c1cc(C)ncc1C(=O)Nc1nc2ncc(-c3ccc(OC(F)F)cc3)nc2s1` [Compound 80, 4-(5-chloro-2-methoxyphenyl)-N-(6-(4-(difluoromethoxy)phenyl)thiazolo[4,5-b]pyrazin-2-yl)-6-methylpyridine-3-carboxamide], for which the results for the IC50 (in assay [1]; in the assay on DLD-1 BRCA2 (−/−) cells (setting [2]); in the assay with DLD-1 parental cells (setting [3])) were less than 100 nM, less than 200 nM and more than 10000 nM, respectively.

In the case of `COc1cnc(C)cc1-c1cc(C)ncc1C(=O)Nc1nc2ncc(-c3ccc(OC(F)(F)F)cc3)nc2s1` [Compound 81, 5′-methoxy-2′,6-dimethyl-N-(6-(4-(trifluoromethoxy)phenyl)thiazolo[4,5-b]pyrazin-2-yl)-[4,4′-bipyridine]-3-carboxamide], the IC50 is less than 100 nM in assay [1], less than 200 nM with DLD-1 BRCA2 (−/−) cells (setting [2]) and more than 10000 nM with DLD-1 parental cells (setting [3]).

In the case of `COc1cnc(C)cc1-c1cc(C)ncc1C(=O)Nc1nc2ncc(-c3ccc(C4CC4)cc3)nc2s1` [Compound 82, N-(6-(4-cyclopropylphenyl)thiazolo[4,5-b]pyrazin-2-yl)-5′-methoxy-2′,6-dimethyl-[4,4′-bipyridine]-3-carboxamide], the IC50 in assay [1] is less than 100 nM; in the assay on DLD-1 BRCA2 (−/−) cells (setting [2]) it was less than 200 nM; with DLD-1 parental cells (setting [3]), more than 10000 nM.

In the case of `COc1cnc(C2CC2)cc1-c1cc(C)ncc1C(=O)Nc1nc2ncc(-c3ccc(C4CC4)cc3)nc2s1` [Compound 83, 2′-cyclopropyl-N-(6-(4-cyclopropylphenyl)thiazolo[4,5-b]pyrazin-2-yl)-5′-methoxy-6-methyl-[4,4′-bipyridine]-3-carboxamide], the IC50 in assay [1] is less than 100 nM; in the assay with DLD-1 BRCA2 (−/−) cells (setting [2]), less than 200 nM; in the assay with DLD-1 parental cells (setting [3]), more than 10000 nM.

For the compound `COc1ccc(C2CC2)cc1-c1cc(C)ncc1C(=O)Nc1nc2ncc(-c3ccc(C#N)cc3)nc2s1` [Compound 84, N-(6-(4-cyanophenyl)thiazolo[4,5-b]pyrazin-2-yl)-4-(5-cyclopropyl-2-methoxyphenyl)-6-methylpyridine-3-carboxamide], the IC50 in assay [1] is less than 100 nM; with DLD-1 BRCA2 (−/−) cells (setting [2]) it was less than 200 nM; with DLD-1 parental cells (setting [3]), more than 10000 nM.

As for `COc1ccc(C2CC2)cc1-c1cc(C)ncc1C(=O)Nc1nc2ncc(-c3ccc(OC(F)F)cc3)nc2s1` [Compound 85, 4-(5-cyclopropyl-2-methoxyphenyl)-N-(6-(4-(difluoromethoxy)phenyl)thiazolo[4,5-b]pyrazin-2-yl)-6-methylpyridine-3-carboxamide], the IC50 in assay [1] is less than 100 nM; in the assay with DLD-1 BRCA2 (−/−) cells (setting [2]), less than 200 nM; with DLD-1 parental cells (setting [3]), more than 10000 nM.

With `COc1ccc(C(F)(F)F)cc1-c1cc(C)ncc1C(=O)Nc1nc2ncc(-c3ccc(C#N)cc3)nc2s1` [Compound 86, N-(6-(4-cyanophenyl)thiazolo[4,5-b]pyrazin-2-yl)-4-(2-methoxy-5-(trifluoromethyl)phenyl)-6-methylpyridine-3-carboxamide], the IC50 in assay [1] was less than 100 nM; in the assay with DLD-1 BRCA2 (−/−) cells (setting [2]), less than 200 nM; with DLD-1 parental cells (setting [3]), more than 10000 nM.

For `Cc1cc(-c2cc(Cl)ccc2Cl)c(C(=O)Nc2nc3ncc(-c4ccc(C#N)cc4)nc3s2)cn1` [Compound 87, N-(6-(4-cyanophenyl)thiazolo[4,5-b]pyrazin-2-yl)-4-(2,5-dichlorophenyl)-6-methylpyridine-3-carboxamide], the IC50 in assay [1] is less than 100 nM; in the assay on DLD-1 BRCA2 (−/−) cells (setting [2]) it was less than 200 nM; in the assay with DLD-1 parental cells (setting [3]) it was more than 10000 nM.

With `COc1cnc(C)cc1-c1cc(C)ccc1C(=O)Nc1nc2ncc(-c3ccc(C#N)cc3)nc2s1` [Compound 92, N-(6-(4-cyanophenyl)thiazolo[4,5-b]pyrazin-2-yl)-2-(5-methoxy-2-methylpyridine-4-yl)-4-methylbenzamide], the IC50 in assay [1] is less than 100 nM; in the assay with DLD-1 BRCA2 (−/−) cells (setting [2]), less than 200 nM; with DLD-1 parental cells (setting [3]), more than 10000 nM.

Turning to `COc1ccc(Cl)cc1-c1cc(C)ccc1C(=O)Nc1nc2ncc(-c3ccc(C#N)cc3)nc2s1` [Compound 93, 5′-chloro-N-(6-(4-cyanophenyl)thiazolo[4,5-b]pyrazin-2-yl)-2′-methoxy-5-methyl-[1,1′-biphenyl]-2-carboxamide], the IC50 in assay [1] was less than 100 nM; with DLD-1 BRCA2 (−/−) cells (setting [2]), less than 200 nM; in the assay with DLD-1 parental cells (setting [3]), more than 10000 nM.

Take `Cc1cc(-c2cc(Cl)ccc2OC2CC2)c(C(=O)Nc2nc3ncc(-c4ccc(C#N)cc4)nc3s2)cn1` [Compound 94, 4-(5-chloro-2-cyclopropoxyphenyl)-N-(6-(4-cyanophenyl)thiazolo[4,5-b]pyrazin-2-yl)-6-methylpyridine-3-carboxamide]: the IC50 in assay [1] is less than 100 nM; in the assay on DLD-1 BRCA2 (−/−) cells (DLD-1, 168 h), less than 200 nM; in the assay on DLD-1 parental cells (DLD-1, 168 h), more than 10000 nM.
